Test results taken from patent US20240252474A1, “METHODS AND COMPOSITIONS COMPRISING A CARDIO-TOLERATED HDAC INHIBITOR” (HUYABIO International, LLC, priority 2023, published 2024).

System: electrocardiogram (ECG) QT interval
Test: 12-lead Holter ECG (QTcF, heart rate) and concentration-QT modeling
Type: in vivo
Conditions: for median ΔQTcF across time points: C1D1, up to 4 hours post dose
Procedure: In conjunction with the pharmacokinetic analysis, Holter monitors were used to record 12-lead continuous digital ECGs (under controlled conditions to minimize digital noise) on a baseline day (within 1-7 days prior to C1D1) and on C1D1 (Phase 1b only). Triplicate 10-second ECGs were extracted from the Holter flashcard at matched time-points on the baseline day and on C1D1 at pre-dose (0.5 hr prior to breakfast), and up to 4 hours post-dose. The PR, QRS, RR, and QT intervals were analyzed by a central ECG laboratory. Mealtimes (breakfast) were standardized across both days. The measured QT data were corrected for heart rate using the Fridericia correction (QTcF). • QTcF was calculated using the formula: Fridericia: QTcFri=QT/(RR)^1/3 (Fridericia L S. Die systolendauer im elektrokardiogramm bei normalenmenschen und bei herzkranken. Acta Med Scand. 1920; 53:469-486).
Non-compartmental PK analysis for HBI-8000 was conducted in Phase 1b using serial plasma concentration data collected up to 24 hours post-dose for the first (Cycle 1 Day 1; C1D1) dose and up to 7 hours post-dose for the ninth (C2D1) dose of HBI-8000. In conjunction with PK, Holter monitors were used to record 12-lead continuous digital ECGs (under controlled conditions to minimize digital noise) on a baseline day (within 1-7 days prior to C1D1) and on C1D1 (Phase 1b only). Triplicate 10-second ECGs were extracted from the Holter flashcard at matched time-points on the baseline day and on C1D1 up to 4 hours post-dose and the PR, QRS, RR, and QT intervals were analyzed by a Central ECG Laboratory. Meal-times (breakfast) were standardized across both days and occurred after or ≥1 hour before the scheduled extraction times for triplicate ECGs. The measured QT data were corrected for heart rate using Fridericia (QTcF).

Nc1cc(F)ccc1NC(=O)c1ccc(CNC(=O)/C=C/c2cccnc2)cc1 [HBI-8000, N-(2-amino-4-fluorophenyl)-4-[[[(2E)-1-oxo-3-(3-pyridinyl)-2-propen-1-yl]amino]methyl]benzamide]
median ΔQTcF across time points (30 mg dose): 0 to −1.5 ms | highest median decrease in QTcF (40 mg dose, 4 hours post dose): -11.5 ms | median ΔQTcF across time points (40 mg dose): −3.0 to −11.5 ms | mean upper 90% confidence limits of model-predicted ΔQTcF (20, 30 and 40 mg doses, threshold 10 ms): −1.1 to −2.8 ms | QTcF values (all patients, 20-40 mg): ≤ 450 ms | ΔQTcF values (all patients, 20-40 mg): ≤ 30 ms | Effect on QTcF (conclusion) (at the doses and regimen administered): did not prolong QTcF | change from baseline ventricular heart rate (single dose 20, 30 or 40 mg on C1D1, 0 to 4 hour): remained essentially stable
